This is an account of results in US6387934B1, “2-Cyano-3,5-dihydroxyhex-2-enecarboxamide derivatives” (Aventis Pharma Deutschland GmbH, priority 1996, dated 2002).

Broadly, the melting point is the temperature, or range, at which the solid turns liquid. As usually defined, the fold induction is the ratio of treated to control signal. Higher therefore signals a large rise in signal.

Data set [1] concerns IL-1-induced chondrocytic chondrolysis. Briefly: Modulation of the IL-1-induced chondrocytic chondrolysis (chondrolysis compensation). The class given is cell-based, bulls. The settings on record: stimulation factor = proteoglycan content with active compound / IL-1-treated control; interleukin-1 for 8 days, 35S-sulfate incorporation 24 hours; factor >1 = stimulation. As for the experimental part:
(§1) Cartilage cells can maintain their characteristic cartilage matrix metabolism ex vivo in suitable cell or tissue culture, i.e. the controlled synthesis and degradation of the matrix macromolecules, over a period of several weeks to months. These processes can be chemically influenced. […] In both assays, the stimulating action of the test substance is expressed by a stimulation factor which is calculated from the quotient of the specific proteoglycan content under the active compound condition divided by the proteoglycan content under the control condition. In Experiment A, the control condition is the untreated control group and in experimental procedure B this is the interleukin-1 (IL-1)-treated control group. A factor=1 can thus identify no action, a factor of >1 points to a stimulation and a factor of <1 to an inhibitory action.
B) Modulation of the IL-1-induced Chondrocytic Chondrolysis (Chondrolysis Compensation)
Cell preparation was carried out as described under A), if cartilage tissue explants are used these are added directly to the enriched culture medium described above after stamping out cartilage disks of 4 mm diameter and a depth which includes the entire cartilage layer. After adaptation for 5 days, interleukin-1 is added to the medium, 8 units/well for the cell culture, 20 units/well for the tissue culture, and, over the treatment period of 8 days, likewise added again every second day on changing the medium. At the end of the experiments, 1 μCi of Na2^35SO4/well is added and the mixture is incubated for 24 hours. After removing the supernatant, the remaining gels or explants are broken down in the microtiter plates by repeated deepfreezing and thawing and extracted with 8 M guanidine hydrochloride. After centrifugation, the supernatant is separated on a PD10 Sephadex column into free and incorporated sulfate and the radioactivity of the samples, which is a measure of the amount of proteoglycan newly formed, is determined in a β counter.

The test system of data set [2] is chondrocytic proteoglycan metabolism. Briefly: Modulation of the chondrocytic proteoglycan metabolism (PG stimulation). The class given is cell-based, bulls. The settings on record: stimulation factor = proteoglycan content with active compound / untreated control, 10 μm test substance, 8 days, chondrocytes in agarose, Alcian Blue extinction at 610 nm, factor >1 = stimulation. As for the experimental part:
as §1
A) Modulation of the chondrocytic proteoglycan metabolism (PG stimulation)
Cartilage samples are taken under sterile conditions from fetlock joints of freshly slaughtered bulls, incubated with 1% strength pronase (Boehringer) solution in Ham's F12 medium (Serva) at 37° C. for 1 hour, and the enzyme solution is replaced by a 0.025% strength collagenase type A (Worthington) solution in medium and incubated overnight. After filtering through a 50 μm nylon filter, centrifugation, resuspension and vitality testing, a cell suspension of 4×10^6 cells/ml of medium, enriched with 20% fetal calf serum, is prepared and mixed at approximately 38° C. with 2% strength low-melting agarose (Seplaque) in the ratio 1:1 and 0.1 ml of this is pipetted into each well of a 24 well microtiter plate. After gelling, the samples are covered with a layer of 0.5 ml/well of medium, which is enriched with 5% serum, 25 μm/ml of ascorbic acid, and in groups of up to 6-8 wells with 10 μm of the test substance. The medium in a constant composition is renewed every second day for a treatment period of 8 days. At the end of the treatment, washing is carried out with medium, 1 ml of a buffered (pH 5.6) 1% strength Alcian Blue (Sigma) solution, enriched with 25% strength glutaraldehyde in the ratio 7:1, per well is added and the mixture is incubated for 48 hours. After washing and differentiating with 3% strength acetic acid, dehydration is carried out up to 70% strength ethanol content by means of the rising alcohol series, and then the bound dye is extracted at 4° C. for 24 hours using 8 M guanidine hydrochloride. The stoichiometric binding of the Alcian Blue to the chondroitin sulfate side chains of the proteoglycans allows a quantification of the enriched matrix via the determination of the extinction of the dye solution at 610 nm.

In the case of `C=CC(O)C/C(O)=C(\C#N)C(=O)Nc1ccc(C(F)(F)F)cc1` (stereo not drawn) [Example 27], the melting point was found to be 141 °C. Further, the Chondrolysis compensation in data set [1] was determined as 1.6. Moreover, the fold induction at 10 µM in data set [2] (Chondrocyte, 192 h) is 1.7.
Take `C=CC(O)C/C(O)=C(\C#N)C(=O)Nc1ccc(C(F)(F)F)cc1` (stereo not drawn) [Example 39]: the melting point lay within 133 to 135 °C. This compound came in with a Chondrolysis compensation in data set [1] of 1.6. This compound also had a PG stimulation in data set [2] of 1.7.
